According to ChEMBL document CHEMBL5518230, “Identification of a Novel Selective CDK9 Inhibitor for the Treatment of CRC: Design, Synthesis, and Biological Activity Evaluation” (J Med Chem, 2024):
Active and inactive are the calls of the source. No cut-off for these calls is given here.

Tests used:
HT-29 = assay: Growth inhibition of human HT-29 cells incubated for 48 hrs by CCK-8 assay; format: functional
CDK9/cyclin T1 = CDK9/cyclin T1 (Homo sapiens, UniProt P50750); assay: Inhibition of CDK9/Cyclin T1 (unknown origin) using PDKtide substrate incubated for 60 mins by ADP-Glo kinase assay; format: protein-complex assay
HCT-116 [1] = assay: Growth inhibition of human HCT-116 cells incubated for 48 hrs by CCK-8 assay; format: functional
[2] = target: CDK9/cyclin T1 (Homo sapiens) (UniProt O60563+P50750); assay: Inhibition of CDK9/Cyclin T1 (unknown origin) using PDKtide substrate at 500 nM incubated for 60 mins by ADP-Glo kinase assay relative to control; format: protein-complex assay
[3] = target: Cyclin-dependent kinase 2 (Homo sapiens, UniProt P24941); assay: Inhibition of CDK2 (unknown origin)
[4] = target: Cyclin-dependent kinase 1 (Homo sapiens, UniProt P06493); assay: Inhibition of CDK1 (unknown origin)
CYP2C9 = CYP2C9 (Homo sapiens, UniProt P11712); assay: Inhibition of CYP2C9 in human liver microsomes using sulfaphenazole as […] at 10 uM preincubated for 10 mins followed by NADPH addition measured after 15 mins by LC-MS/MS analysis relative to control; format: ADME, Microsome; conditions: probe sulfaphenazole, time 25 min
CYP2D6 = CYP2D6 (Homo sapiens, UniProt P10635); assay: Inhibition of CYP2D6 in human liver microsomes using quinidine as […] at 10 uM preincubated for 10 mins followed by NADPH addition measured after 15 mins by LC-MS/MS analysis relative to control; format: ADME, Microsome; conditions: time 25 min
[5] = Intrinsic clearance in human liver microsomes at 100 uM measured upto 60 mins in presence of NADPH by LC-MS/MS analysis; format: ADME, Microsome; conditions: 1 h
[6] = Intrinsic microsomal clearance in human liver microsomes at 100 uM measured upto 60 mins in presence of NADPH by LC-MS/MS analysis; format: ADME, Microsome; conditions: read-out: CLH
[7] = target: Cyclin-dependent kinase 8 (Homo sapiens, UniProt P49336); assay: Inhibition of CDK8 (unknown origin)
CYP2C19 = CYP2C19 (Homo sapiens, UniProt P33261); assay: Inhibition of CYP2C19 in human liver microsomes using benzylnirvanol as […] at 10 uM preincubated for 10 mins followed by NADPH addition measured after 15 mins by LC-MS/MS analysis relative to control; format: ADME, Microsome; conditions: probe benzylnirvanol, time 25 min
[8] = Stability in human liver microsomes assessed as compound remaining at 100 uM measured upto 60 mins in presence of NADPH by LC-MS/MS analysis; format: ADME, Microsome; conditions: read-out: Stability
[9] = target: Cyclin-dependent kinase 4 (Homo sapiens, UniProt P11802); assay: Inhibition of CDK4 (unknown origin)
[10] = target: Cyclin-dependent kinase 6 (Homo sapiens, UniProt Q00534); assay: Inhibition of CDK6 (unknown origin)
[11] = target: Cyclin-dependent kinase 5 (Homo sapiens, UniProt Q00535); assay: Inhibition of CDK5 (unknown origin)
CYP1A2 = target: T1, CYP1A2 (Homo sapiens, UniProt P05177); assay: Inhibition of CYP1A2 in human liver microsomes using alpha-naphthoflavone as […] at 10 uM preincubated for 10 mins followed by NADPH addition measured after 15 mins by LC-MS/MS analysis relative to control; format: ADME, Microsome; conditions: time 25 min
T1 sequence (P05177 whole entry): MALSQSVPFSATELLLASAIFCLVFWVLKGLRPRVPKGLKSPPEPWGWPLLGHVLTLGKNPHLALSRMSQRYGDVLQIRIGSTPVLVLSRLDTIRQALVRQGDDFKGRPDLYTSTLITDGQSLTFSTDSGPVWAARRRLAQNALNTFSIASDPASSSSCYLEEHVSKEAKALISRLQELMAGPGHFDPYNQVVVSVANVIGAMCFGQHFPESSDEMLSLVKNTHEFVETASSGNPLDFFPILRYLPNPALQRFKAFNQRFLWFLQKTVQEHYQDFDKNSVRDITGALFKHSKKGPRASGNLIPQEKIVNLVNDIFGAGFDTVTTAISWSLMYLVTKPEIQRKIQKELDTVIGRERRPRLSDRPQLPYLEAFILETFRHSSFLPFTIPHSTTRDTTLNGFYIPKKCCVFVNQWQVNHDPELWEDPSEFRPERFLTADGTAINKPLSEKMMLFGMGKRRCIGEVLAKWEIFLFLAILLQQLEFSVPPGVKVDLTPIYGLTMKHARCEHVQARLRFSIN

CYP3A4 = CYP3A4 (Homo sapiens, UniProt P08684); assay: Inhibition of CYP3A4 in human liver microsomes using ketoconazole as […] at 10 uM preincubated for 10 mins followed by NADPH addition measured after 15 mins by LC-MS/MS analysis relative to control; format: ADME, Microsome; conditions: probe ketoconazole, time 25 min
[12] = target: Cyclin-dependent kinase 7 (Homo sapiens, UniProt P50613); assay: Inhibition of CDK7 (unknown origin)
[13] = target: Cyclin-dependent kinase 9 (Homo sapiens, UniProt P50750); assay: Inhibition of CDK9 (unknown origin)
[14] = Half life in human liver microsomes at 100 uM measured upto 60 mins in presence of NADPH by LC-MS/MS analysis; format: ADME, Microsome
[15] = Half life in human plasma measured upto 120 mins by LC-MS/MS analysis; format: ADME, cell-free
[16] = target: Cyclin-dependent kinase 12 (Homo sapiens, UniProt Q9NYV4); assay: Inhibition of CDK12 (unknown origin)
HCT-116 [17] = assay: Inhibition of colony formation in human HCT-116 cells assessed as reduction in colony number incubated for 14 days by crystal violet staining assay; format: functional, cell-based; conditions: time 14.0 day
HCT-116 [18] = assay: Antitumor activity against human HCT-116 cells xenografted in BALB/c mouse assessed as tumor growth inhibition at 50 mg/kg,po administrated once daily for 3 weeks; format: functional, organism-based

CDK9/cyclin T1, sequence (O60563 whole entry): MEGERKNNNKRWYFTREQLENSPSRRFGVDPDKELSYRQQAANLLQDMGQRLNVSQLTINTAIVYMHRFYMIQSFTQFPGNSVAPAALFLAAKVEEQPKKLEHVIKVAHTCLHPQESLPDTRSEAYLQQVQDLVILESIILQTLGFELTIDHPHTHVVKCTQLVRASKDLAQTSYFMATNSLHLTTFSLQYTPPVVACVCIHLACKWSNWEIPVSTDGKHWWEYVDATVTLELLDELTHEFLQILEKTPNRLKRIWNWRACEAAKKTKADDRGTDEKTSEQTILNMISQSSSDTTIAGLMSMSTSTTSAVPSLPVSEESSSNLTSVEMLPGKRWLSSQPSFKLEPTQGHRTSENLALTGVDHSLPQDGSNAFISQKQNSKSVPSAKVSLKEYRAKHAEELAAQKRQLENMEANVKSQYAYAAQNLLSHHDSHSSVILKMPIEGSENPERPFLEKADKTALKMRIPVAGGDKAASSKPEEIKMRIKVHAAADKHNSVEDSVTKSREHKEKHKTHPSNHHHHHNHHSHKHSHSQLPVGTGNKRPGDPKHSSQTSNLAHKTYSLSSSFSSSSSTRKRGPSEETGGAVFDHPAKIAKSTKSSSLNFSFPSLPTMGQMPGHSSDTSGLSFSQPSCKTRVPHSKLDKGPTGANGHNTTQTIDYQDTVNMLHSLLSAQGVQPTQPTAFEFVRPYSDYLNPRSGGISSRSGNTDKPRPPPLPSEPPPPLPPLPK
CDK9/cyclin T1, sequence (P50750 whole entry): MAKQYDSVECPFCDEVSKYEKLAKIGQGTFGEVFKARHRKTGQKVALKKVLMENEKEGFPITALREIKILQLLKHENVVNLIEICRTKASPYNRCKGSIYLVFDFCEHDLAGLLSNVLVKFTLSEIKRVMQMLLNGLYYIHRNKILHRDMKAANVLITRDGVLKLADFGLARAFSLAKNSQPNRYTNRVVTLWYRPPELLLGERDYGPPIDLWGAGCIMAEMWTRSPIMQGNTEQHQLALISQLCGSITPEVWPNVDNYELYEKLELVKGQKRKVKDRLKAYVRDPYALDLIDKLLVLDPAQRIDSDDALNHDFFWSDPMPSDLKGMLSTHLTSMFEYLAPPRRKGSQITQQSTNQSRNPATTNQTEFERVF
Cyclin-dependent kinase 6, sequence (Q00534 whole entry): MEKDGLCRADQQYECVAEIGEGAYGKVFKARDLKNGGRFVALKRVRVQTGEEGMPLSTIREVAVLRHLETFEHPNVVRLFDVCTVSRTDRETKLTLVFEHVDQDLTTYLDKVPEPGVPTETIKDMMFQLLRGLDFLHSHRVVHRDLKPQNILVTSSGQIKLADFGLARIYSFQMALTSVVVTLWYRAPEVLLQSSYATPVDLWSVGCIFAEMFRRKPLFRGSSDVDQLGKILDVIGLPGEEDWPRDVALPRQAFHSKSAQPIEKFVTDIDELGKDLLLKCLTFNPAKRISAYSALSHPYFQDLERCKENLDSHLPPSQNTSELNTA
Cyclin-dependent kinase 12, sequence (Q9NYV4 whole entry): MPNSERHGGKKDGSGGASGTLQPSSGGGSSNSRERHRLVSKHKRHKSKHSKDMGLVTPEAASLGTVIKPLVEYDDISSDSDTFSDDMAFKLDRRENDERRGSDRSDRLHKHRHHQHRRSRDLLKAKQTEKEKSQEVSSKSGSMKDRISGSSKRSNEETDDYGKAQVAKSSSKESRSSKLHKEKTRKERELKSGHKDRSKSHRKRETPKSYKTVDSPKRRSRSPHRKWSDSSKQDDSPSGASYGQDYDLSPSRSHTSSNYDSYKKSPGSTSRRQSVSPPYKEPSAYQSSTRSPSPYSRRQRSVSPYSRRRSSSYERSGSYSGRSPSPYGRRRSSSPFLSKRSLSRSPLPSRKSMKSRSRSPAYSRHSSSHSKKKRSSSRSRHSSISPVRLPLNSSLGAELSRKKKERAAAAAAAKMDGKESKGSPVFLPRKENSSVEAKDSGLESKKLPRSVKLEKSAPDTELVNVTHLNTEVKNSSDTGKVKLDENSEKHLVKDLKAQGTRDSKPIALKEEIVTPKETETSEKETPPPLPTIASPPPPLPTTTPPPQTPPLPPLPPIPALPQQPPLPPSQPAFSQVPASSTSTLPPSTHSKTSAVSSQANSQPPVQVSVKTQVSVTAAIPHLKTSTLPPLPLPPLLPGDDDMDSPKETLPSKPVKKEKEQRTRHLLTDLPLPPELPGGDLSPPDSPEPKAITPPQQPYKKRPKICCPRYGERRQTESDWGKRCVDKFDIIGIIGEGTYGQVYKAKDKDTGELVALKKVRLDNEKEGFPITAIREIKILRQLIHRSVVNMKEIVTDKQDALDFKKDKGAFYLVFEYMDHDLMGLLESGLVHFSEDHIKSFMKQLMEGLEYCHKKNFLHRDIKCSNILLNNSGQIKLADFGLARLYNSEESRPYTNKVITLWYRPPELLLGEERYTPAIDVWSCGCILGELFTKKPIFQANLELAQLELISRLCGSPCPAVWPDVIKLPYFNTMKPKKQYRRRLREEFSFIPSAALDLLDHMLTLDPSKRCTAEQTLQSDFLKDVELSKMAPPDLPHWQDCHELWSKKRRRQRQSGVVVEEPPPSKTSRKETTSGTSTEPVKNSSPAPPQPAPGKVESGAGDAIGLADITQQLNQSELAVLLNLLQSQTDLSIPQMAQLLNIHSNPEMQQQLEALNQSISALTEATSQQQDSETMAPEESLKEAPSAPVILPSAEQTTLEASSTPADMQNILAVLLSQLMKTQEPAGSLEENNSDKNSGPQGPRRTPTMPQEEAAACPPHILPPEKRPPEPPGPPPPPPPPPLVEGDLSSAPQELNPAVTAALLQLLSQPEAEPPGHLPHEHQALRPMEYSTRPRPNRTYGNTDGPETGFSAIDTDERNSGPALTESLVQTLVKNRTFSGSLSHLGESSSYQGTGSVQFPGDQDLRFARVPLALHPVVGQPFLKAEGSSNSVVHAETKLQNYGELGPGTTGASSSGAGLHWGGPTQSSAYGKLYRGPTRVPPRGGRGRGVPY
CYP2D6, sequence (P10635 whole entry): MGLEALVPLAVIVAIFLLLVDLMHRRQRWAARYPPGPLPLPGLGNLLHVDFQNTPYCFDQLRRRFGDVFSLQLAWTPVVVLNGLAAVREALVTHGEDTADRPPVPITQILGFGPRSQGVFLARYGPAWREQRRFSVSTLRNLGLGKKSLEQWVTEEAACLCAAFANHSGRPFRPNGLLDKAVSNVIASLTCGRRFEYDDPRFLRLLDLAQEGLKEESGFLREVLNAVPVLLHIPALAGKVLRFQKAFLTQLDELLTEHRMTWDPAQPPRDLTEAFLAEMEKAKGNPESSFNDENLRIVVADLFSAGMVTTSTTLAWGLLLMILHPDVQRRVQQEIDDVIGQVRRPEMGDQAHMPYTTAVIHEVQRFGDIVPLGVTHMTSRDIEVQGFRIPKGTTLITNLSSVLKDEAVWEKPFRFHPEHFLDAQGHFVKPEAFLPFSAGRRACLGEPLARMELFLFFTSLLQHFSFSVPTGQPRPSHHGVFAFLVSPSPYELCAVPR
Cyclin-dependent kinase 4, sequence (P11802 whole entry): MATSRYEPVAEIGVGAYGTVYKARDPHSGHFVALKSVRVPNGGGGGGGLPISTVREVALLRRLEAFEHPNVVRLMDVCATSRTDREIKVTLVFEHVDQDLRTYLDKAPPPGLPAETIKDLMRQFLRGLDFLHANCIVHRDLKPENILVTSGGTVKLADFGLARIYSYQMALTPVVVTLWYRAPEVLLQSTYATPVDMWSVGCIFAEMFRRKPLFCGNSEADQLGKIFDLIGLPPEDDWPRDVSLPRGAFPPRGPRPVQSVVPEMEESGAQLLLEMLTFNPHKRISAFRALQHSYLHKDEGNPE
Cyclin-dependent kinase 5, sequence (Q00535 whole entry): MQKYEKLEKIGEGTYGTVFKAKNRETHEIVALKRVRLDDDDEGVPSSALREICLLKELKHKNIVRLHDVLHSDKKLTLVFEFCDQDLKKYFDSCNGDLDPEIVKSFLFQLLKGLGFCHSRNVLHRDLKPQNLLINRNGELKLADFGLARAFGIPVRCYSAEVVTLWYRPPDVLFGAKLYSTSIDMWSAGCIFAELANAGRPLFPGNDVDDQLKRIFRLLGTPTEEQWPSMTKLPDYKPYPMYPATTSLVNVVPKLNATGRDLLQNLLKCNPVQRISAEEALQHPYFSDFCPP
Cyclin-dependent kinase 1, sequence (P06493 whole entry): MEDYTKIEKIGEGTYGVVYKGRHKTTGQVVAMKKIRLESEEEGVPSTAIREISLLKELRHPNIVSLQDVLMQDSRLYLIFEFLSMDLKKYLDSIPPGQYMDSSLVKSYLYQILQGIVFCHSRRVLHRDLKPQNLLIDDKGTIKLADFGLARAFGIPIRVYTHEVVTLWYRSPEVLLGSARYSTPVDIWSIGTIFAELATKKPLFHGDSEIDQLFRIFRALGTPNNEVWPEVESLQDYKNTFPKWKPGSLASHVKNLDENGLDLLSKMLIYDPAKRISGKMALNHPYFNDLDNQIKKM
CYP2C19, sequence (P33261 whole entry): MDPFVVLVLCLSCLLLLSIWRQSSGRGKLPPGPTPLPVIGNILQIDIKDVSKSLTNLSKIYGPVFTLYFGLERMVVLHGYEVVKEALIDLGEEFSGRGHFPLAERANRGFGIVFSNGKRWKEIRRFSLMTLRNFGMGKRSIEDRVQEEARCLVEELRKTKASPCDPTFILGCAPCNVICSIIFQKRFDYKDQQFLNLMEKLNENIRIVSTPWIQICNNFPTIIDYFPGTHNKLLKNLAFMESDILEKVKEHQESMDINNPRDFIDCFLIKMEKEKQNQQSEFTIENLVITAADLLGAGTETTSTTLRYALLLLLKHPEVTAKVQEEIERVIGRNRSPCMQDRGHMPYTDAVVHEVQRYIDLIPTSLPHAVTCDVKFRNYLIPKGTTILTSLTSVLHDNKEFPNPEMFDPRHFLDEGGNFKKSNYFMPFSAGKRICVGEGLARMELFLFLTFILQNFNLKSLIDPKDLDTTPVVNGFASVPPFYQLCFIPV
Cyclin-dependent kinase 9, sequence (P50750 whole entry): as the sequence (P50750 whole entry) above

| SMILES | GI50 (HT-29) [nM] | IC50 (CDK9/cyclin T1) [nM] | GI50 (HCT-116 [1]) [nM] | inhibition [2] [%] | further results |
| --- | --- | --- | --- | --- | --- |
| CC(C)n1nnc2ccc(-c3ccnc(Nc4ccc(C(=O)N5CCNC(=O)C5)cn4)c3)cc21 | 300 | 2.3 | 90 |  |  |
| CC(C)(C)n1nnc2ccc(-c3ccnc(Nc4ccc(C(=O)N5CCOCC5)cn4)c3)cc21 |  | 9.73 |  | 98.9 |  |
| CC(C)n1nnc2ccc(-c3ccnc(Nc4ccc(C(=O)N5CCN(C)CC5)cn4)c3)cc21 | 230 | 4.39 | 250 |  |  |
| CC(C)(C)n1nnc2ccc(-c3ccnc(Nc4ccc(C(=O)N5CCOCC5)cc4)c3)cc21 |  |  |  | 73.5 |  |
| CC(C)N1CCN(C(=O)c2ccnc(Nc3cc(-c4ccc5nnn(C(C)C)c5c4)ccn3)c2)CC1 | 410 | 3.37 | 40 |  | IC50 [3]: 167 nM; IC50 [4]: 125 nM; inhibition at 0.25 h, 10 µM (CYP2C9): 56.3%; inhibition at 0.25 h, 10 µM (CYP2D6): 7.1%; CLH [5]: 158.9 µL/min/mg; microsomal CLint at 100 µM [6]: 177 µL/min/mg; IC50 [7]: > 500 nM; inhibition at 0.25 h, 10 µM (CYP2C19): 48.3%; remaining at 1 h, 100 µM [8]: 0.5%; IC50 [9]: > 500 nM; IC50 [10]: 33.1 nM; IC50 [11]: > 500 nM; inhibition at 0.25 h, 10 µM (CYP1A2): 25.1%; inhibition at 0.25 h, 10 µM (CYP3A4): 15.7%; IC50 [12]: > 500 nM; IC50 [13]: 3.3 nM; half-life at 100 µM [14]: 7.8 min; half-life [15]: > 289 min; IC50 [16]: > 500 nM |
| CC(C)n1nnc2ccc(-c3ccnc(Nc4ccc(C(=O)N5CCOCC5)cn4)c3)cc21 | 220 | 9.43 | 350 | 101 |  |
| COc1cc(C(=O)N2CCOCC2)ccc1Nc1cc(-c2ccc3nnn(C4CCCCC4)c3c2)ccn1 |  |  |  | 16.3 |  |
| CC(C)n1nnc2ccc(-c3ccnc(Nc4ccc(C(=O)N5CCOCC5)cc4F)c3)cc21 |  |  |  | 65.3 |  |
| COc1cc(C(=O)N2CCOCC2)ccc1Nc1cc(-c2ccc3nnn(C4CCCC4)c3c2)ccn1 |  |  |  | 23.5 |  |
| Cc1ncc(-c2ccnc(Nc3ccc(S(C)(=O)=O)cc3)n2)n1C(C)C [AZD-5438] | 960 |  | 450 |  | inhibition (HCT-116 [17]): Dose-Dependent Effect; Activity (HCT-116 [18]): Active |
| O=C(c1ccc(Nc2cc(-c3ccc4nnn(C5CCCCC5)c4c3)ccn2)nc1)N1CCOCC1 |  | 13.2 |  | 98 |  |

More lines, main results first:

| GI50 (HT-29) [nM] | IC50 (CDK9/cyclin T1) [nM] | GI50 (HCT-116 [1]) [nM] | inhibition [2] [%] | SMILES | further results |
| --- | --- | --- | --- | --- | --- |
|  |  |  | 41.7 | COc1cc(C(=O)N2CCOCC2)ccc1Nc1cc(-c2ccc3nnn(C(C)C)c3c2)ccn1 |  |
|  |  |  | 11.4 | CC(C)n1nnc2ccc(-c3ccnc(Nc4ccc(C(=O)N5CCOCC5)cc4C(F)(F)F)c3)cc21 |  |
| 80 | 4.08 | 330 |  | CC(C)N1CCN(C(=O)c2ccc(Nc3cc(-c4ccc5nnn(C(C)C)c5c4)ccn3)nc2)CC1 |  |
|  |  |  | 83 | CC(C)n1nnc2ccc(-c3ccnc(Nc4ccc(C(=O)N5CCOCC5)cc4)c3)cc21 |  |
|  |  |  | 76 | O=C(c1ccc(Nc2cc(-c3ccc4nnn(C5CCCCC5)c4c3)ccn2)cc1)N1CCOCC1 |  |
